Entries after “also recorded” stand apart in the source; their conditions may differ.
Key:
[1] = test system: CCND2 expression in UCC cell lines; test: Q-RT-PCR of CCND2 expression after 5-aza-dc and/or TSA treatment of UCC cell lines; format: cell-based; conditions: 5 μM 5-aza-dc for 5 days, vs PBS control
Description: (§1) UCC cells were seeded in 75 cm2 culture flasks at a density of […] and incubated at 37° C. in 5% CO2/95% air overnight. Cells were then treated with 5μM of 5-aza-dc (Sigma Chemical, Sigma, USA) for 5 days. […] Additionally, combination treatment with 5-aza-dc and TSA was performed by adding 5μM of 5-aza-dc daily for 5 days and TSA (300 nmol/L; Sigma) was added to the medium for the final 24 hours. […] PBS (phosphate buffered saline) alone was used as a control to exclude non-specific solvent effects on cells. All experiments were run independently twice. RNA was extracted using Qiazol Lysis reagent (Qiagen, Valencia, Calif.) according to the manufacturer's instructions. One microgram of total RNA was used for cDNA conversion using the Quantitect Reverse Transcription Kit (Qiagen, Valencia, Calif.), following manufacturer's protocol. Q-RT-PCR was performed using the SYBR Green chemistry in a 7900HT Real-Time PCR System (Applied Biosystems, Foster City, CA). […] The RT-PCR primer sequences are available in Supplementary Table 2B. […] Quantitative reverse transcriptase PCR was performed to determine whether promoter methylation of CCNA1 and CCND2 inversely correlated with their expression. […]

[2] = test system: CCNA1 expression in UCC cell lines; test: Q-RT-PCR of CCNA1 expression after 5-aza-dc and/or TSA treatment of UCC cell lines; format: cell-based; conditions: SW780 and J82 cell lines; 5 μM 5-aza-dc for 5 days; vs PBS control
Description: as §1

Structure (SMILES): Nc1ncn([C@H]2C[C@H](O)[C@@H](CO)O2)c(=O)n1 [5-aza-dc, 5-aza-deoxycytidine]
- CCND2 expression (real-time RT-PCR) ([1]; HT1376 cell line): overexpression was observed after 5-aza-dc treatment only (not significant)
- CCND2 expression (real-time RT-PCR) ([1]; UMUC-3, J82 and T24 cell lines): Reactivation of CCND2 was observed
- CCNA1 expression (real-time RT-PCR) [2]: re-expression of CCNA1; also recorded: Reactivation of CCNA1 was observed

Source: patent publication US20200181709A1, “METHODS OF DETECTION AND TREATMENT OF UROTHELIAL CANCER” (THE JOHNS HOPKINS UNIVERSITY, priority 2015, published 2020)
